According to patent publication US7956065B2, “Pharmaceutical compounds” (Biovail Laboratories International (Barbados) S.R.L., priority 2008, dated 2011):
Entries after “also recorded” stand apart in the source; their conditions may differ. Counter-ions that a name gives are not always drawn. Like-named read-outs stand apart in the source and are kept apart here.

How the values were obtained:
[1] = system: PCP-induced cognitive deficit in the retention phase of the NOR task in female rats; conditions: cited from earlier work; for cognitive deficit in the retention phase of the NOR task: female rats
[2] = system: sub-chronic PCP-induced deficits in working memory in female hooded-Lister rats; test: Novel object recognition (NOR) task after sub-chronic PCP treatment; assay type: in vivo, rat
Text: One of the symptoms of dementia is the progressive development of a cognitive deficit. Certain pre-clinical tests allow the observation of relatively subtle cognitive deficits in the rat. The cognitive deficits observed are seen in behaviours such as working memory deficits which may be measured by recognition tasks such as the novel object recognition (NOR) paradigm. A recognition memory task allows the comparison between presented stimuli and previously stored information. Ennaceur & Delacour, Behav. Brain Res. 31: 47-59 (1988) described the NOR test in rats which was based on the differential exploration of familiar and new objects. The NOR test is a non-rewarded, ethologically relevant paradigm based on the spontaneous exploratory behaviour of rats which measures working memory. Each session consists of two trials. In the first trial, the rats are exposed to two identical objects in an open field. During the second trial, rats are exposed to two dissimilar objects, one familiar object from the first trial and one new object. Object recognition in rats can be measured as the difference in time spent exploring the familiar and the new object. […] The duration of each trial is also important as a preference for the novel object only lasts during the first 1 or 2 minutes, after which time preference diminishes as both objects become familiar and are explored equally.
The abovementioned rodent model was used to assess the effects of the Isomer A on sub-chronic PCP-induced deficits in working memory using the novel object recognition (NOR) paradigm. The working hypothesis was that both acute and sub-chronic treatment with Isomer A will attenuate the selective working memory deficit induced by sub-chronic PCP as measured in the NOR test paradigm.
Rats are allowed to habituate to the empty test box and the behavioural test room environment for 1 hour on day 1. Prior to behavioural testing on day 2 rats are given a further 3 minutes habituation.
Following the 3 minute habituation period, the rats are given two 3 minute trials (T1 and T2) which are separated by a 1 minute inter-trial interval in the home cage during which the objects are changed.
In this trial, the animals are allowed to explore two identical objects (A1 and A2) for 3 minutes.
In this trial, the animals explore a familiar object (A) from T1 and a novel object (B) for 3 minutes. The familiar object presented during T2 is a duplicate of the object presented in T1 in order to avoid any olfactory trails.
The object exploration is defined by animals licking, sniffing or touching the object with the forepaws whilst sniffing, but not leaning against, turning around, standing or sitting on the object. The exploration time (s) of each object (A1, A2, A and B) in each trial are recorded using two stopwatches and the following factors are calculated: • Total exploration time of both objects in the acquisition trial(s). • Total exploration time of both objects in the retention trial(s). • Habituation of exploratory activity. The LMA includes the exploration time, as measured by the number of lines crossed, for both the trials. • Discrimination index, which is calculated as shown below; (time spent exploring novel object−time spent exploring familiar object)÷total time spent in exploring the objects
Behaviour in all trials was recorded on video for subsequent blind scoring.
50 female hooded-Lister rats (Harlan, UK) were used as subjects for these studies. Rats were housed in groups of 5 under standard laboratory conditions under a 12 hr light:dark cycle, lights on at 0700 hr. All testing was carried out in the light phase. Food and water were freely provided. All experiments were conducted in accordance with the Animals Scientific Procedures Act, U.K. 1986 and were approved by the University of Bradford ethical review panel.
Rats were randomly assigned to two treatment groups and treated with vehicle, n=10 (distilled water, ip) or PCP, n=40 (2 mg/kg, ip) twice daily for 7 days. […]

Compound: O=C(CCCN1CCC(O)(c2ccc(Cl)cc2)CC1)c1ccc(F)cc1 [haloperidol]
- improvement of deficit induced by sub-chronic PCP in NOR paradigm ([1]; haloperidol 0.05-0.075 mg/kg): not

Compound: Cc1nc2n(c(=O)c1CCN1CCC(c3noc4cc(F)ccc34)CC1)CCCC2 [risperidone, reference compound]
- attenuation of sub-chronic PCP-induced deficit in retention trial ([2]; risperidone 0.2 mg/kg i.p., 30 min before testing, FIG. 2): attenuate the sub-chronic PCP-induced deficit
- discrimination index (DI) in sub-chronic PCP treated rats ([2]; risperidone 0.2 mg/kg i.p., did not reach statistical significance, FIG. 3): improved

Compound: c1ccc(C2(N3CCCCC3)CCCCC2)cc1 [PCP, Phencyclidine hydrochloride]
- discrimination index (DI) after sub-chronic PCP treatment ([2]; PCP 2 mg/kg i.p. twice daily for seven days, did not reach statistical significance, FIG. 3): induced a reduction in the discrimination index
- cognitive deficit in the retention phase of the NOR task ([1]; acute PCP 0.5-2.0 mg/kg ip): produce a selective cognitive deficit
- cognitive deficit in the retention phase of the NOR task ([1]; sub-chronic PCP 2 mg/kg i.p. twice daily for 7 days followed by 7 days drug-free period): produce a selective cognitive deficit

Compound: COc1cc2c(cc1OC)[C@@H]1C[C@@H](O)[C@H](CC(C)C)CN1CC2 (single isomer, unassigned) [Isomer A]
- sedation (observation of the behaviour of the rats) ([2]; Isomer A 30 mg/kg p.o.): did not appear sedated
- improvement of PCP-induced working memory deficit in retention phase of NOR task, statistical significance ([2]; Isomer A 30 mg/kg p.o. (highest dose), FIG. 2): significant at the highest dose
- locomotor activity in the test arena (number of lines crossed, T1 and T2) ([2]; Isomer A 30 mg/kg p.o., compared with vehicle control group, FIG. 4): significant effect to reduce locomotor activity
- discrimination index (DI) in sub-chronic PCP treated rats ([2]; Isomer A 30 mg/kg p.o., did not reach statistical significance, FIG. 3): improved
- exploration of two identical objects in the acquisition phase (T1) ([2]; Isomer A 3.0-30 mg/kg p.o., FIG. 1): no effect
- attenuation of sub-chronic PCP-induced deficit in retention trial (exploration time of familiar vs novel object) ([2]; acute Isomer A 3-30 mg/kg p.o., 30 min before testing, sub-chronic PCP 2 mg/kg i.p. twice daily for 7 days then 7 days washout, FIG. 2): has efficacy to attenuate the sub-chronic PCP-induced deficit; also recorded: selective for the retention phase of the NOR task; also recorded: counteracted the effects of sub-chronic administration of phencyclidine hydrochloride (PCP)
